Test results published in patent publication US6461866B1, “In vitro photodynamic therapy using non laser light” (Photo Therapeutics Limited, priority 1992, dated 2002).

System: Chinese hamster ovary (CHO) cells
Experiment: In vitro PDT: survival of CHO cells incubated with HpD after irradiation
Type: cell-based
Experimental: In vitro work carried out using Chinese hamster ovary (CHO) cells incubated with […] HpD for 24 hours. Irradiation was centered on 630±12 nm for three light sources, namely a high intensity continuous wave (CW) lamp (non-laser light source in accordance with the present invention using 300 W Xenon lamp), secondly a continuous wave 20 W argon ion pumped dye laser and pulsed 10 W copper vapour pumped dye laser, all with fibre delivery. Light doses ranged from 0 to 2.5 J/cm^2 with light fluences ranging from 20 to 200 mW/cm^2. A light only control was taken at 275 mW/cm^2 for energy doses of 0 to 100 J/cm^2. Following irradiation, cells were plated out, stained and counted for survival.
FIGS. 2a, 2b, 2c show photosensitiser (HpD) absorption spectrum, cell kill efficacy spectrum and overlapping HpD/lamp spectra. PBS refers to phosphate buffered saline; S.F. means survival fraction.
FIGS. 3a, 3b show cell survival curves obtained at 20 & 50 mW/cm^2 respectively with highest kill efficiency achieved by the argon ion laser, followed by the copper vapour laser. The lamp kill efficiency of the light source in accordance with the present invention, though similar to the lasers (approx 70%) would be increased by reducing its emission bandwidth from 30 nm.

Substance: haematoporhyrin derivative [HpD]
- lamp kill efficiency (cell survival curves) (CHO cells, 10 pg/ml HpD for 24 hours, 300 W Xenon lamp at 630±12 nm, 20 & 50 mW/cm^2, similar to the lasers): approx 70%
- photo-inactivation of cancerous CHO cells in vitro (HpD with impinging visible light at 630±12 nm from the non-laser light source): proven photo-inactivation
